For test [1], the target named is T1, VEGFR2 (KDR) (Homo sapiens, UniProt P35968).
T1 construct: made in house; host or cells: Sf9 cells (Spodoptera frugiperda), baculovirus
Put plainly: In vitro receptor tyrosine kinase assay (VEGF receptor KDR), DELFIA. It is filed as biochemical. The conditions noted are these: recombinant GST-VEGFR2 806-1356, ATP 0.6 uM; read-out: VEGFR IC50UM. From the text:
In Vitro Receptor Tyrosine Kinase Assay (VEGF Receptor KDR)
This test measures the ability of compounds to inhibit the enzymatic activity of recombinant human VEGF receptor enzymatic activity.
A 1.6-kb cDNA corresponding to the catalytic domain of VEGFR2 (KDR) (Genbank accession number AF035121 amino acid 806 to 1356) is cloned into the Pst I site of the pDEST20 Gateway vector (Invitrogen) for the production of a GST-tagged version of that enzyme. This construct is used to generate recombinant baculovirus using the Bac-to-Bac™ system according to the manufacturer's instructions (Invitrogen).
The GST-VEGFR2806-1356 protein is expressed in Sf9 cells (Spodoptera frugiperda) upon infection with recombinant baculovirus construct. Briefly, Sf9 cells grown in suspension and maintained in serum-free medium (Sf900 II supplemented with gentamycin) at a cell density of about 2×10^6 cells/ml are infected with the above-mentioned viruses at a multiplicity of infection (MOI) of 0.1 during 72 hours at 27° C. with agitation at 120 rpm on a rotary shaker. Infected cells are harvested by centrifugation at 398 g for 15 min. Cell pellets are frozen at −80° C. until purification is performed.
All steps described in cell extraction and purification are performed at 4° C. Frozen Sf9 cell pellets infected with the GST-VEGFR2806-1356 recombinant baculovirus are thawed and gently resuspended in Buffer A (PBS pH 7.3 supplemented with 1 μg/ml pepstatin, 2 μg/ml Aprotinin and leupeptin, 50 μg/ml PMSF, 50 μg/ml TLCK and 10 μM E64 and 0.5 mM DTT) using 3 ml of buffer per gram of cells. Suspension is Dounce homogenized and 1% Triton X-100 is added to the homogenate after which it is centrifuged at 22500 g, 30 min., 4° C. The supernatant (cell extract) is used as starting material for purification of GST-VEGFR2806-1356.
The supernatant is loaded onto a GST-agarose column (Sigma) equilibrated with PBS pH 7.3. Following a four column volume (CV) wash with PBS pH 7.3+1% Triton X-100 and 4 CV wash with buffer B (50 mM Tris pH 8.0, 20% glycerol and 100 mM NaCl), bound proteins are step eluted with 5 CV of buffer B supplemented with 5 mM DTT and 15 mM glutathion. GST-VEGFR2806-1356 enriched fractions from this chromatography step are pooled based on U.V. trace i.e. fractions with high O.D.280. Final GST-VEGFR2806-1356 protein preparations concentrations are about 0.7 mg/ml with purity approximating 70%. Purified GST-VEGFR2806-1356 protein stocks are aliquoted and frozen at −80° C. prior to use in enzymatic assay.
Inhibition of VEGFR/KDR is measured in a DELFIA™ assay (Perkin Elmer). The substrate poly(Glu4,Tyr) is immobilized onto black high-binding polystyrene 96-well plates. The coated plates are washed and stored at 4° C. During the assay, the enzyme is pre-incubated with inhibitor and Mg-ATP on ice in polypropylene 96-well plates for 4 minutes, and then transferred to the coated plates. The subsequent kinase reaction takes place at 30° C. for 10-30 minutes. ATP concentrations in the assay are 0.6 uM for VEGFR/KDR (2× the Km). Enzyme concentration is 5 nM. After incubation, the kinase reactions are quenched with EDTA and the plates are washed. Phosphorylated product is detected by incubation with Europium-labeled anti-phosphotyrosine MoAb. After washing the plates, bound MoAb is detected by time-resolved fluorescence in a Gemini SpectraMax reader (Molecular Devices). Compounds are evaluated over a range of concentrations, and IC50 values (concentration of compounds giving 50% inhibition of enzymatic activity) are determined.

The subject of test [2] is laser-induced choroidal neovascularization (CNV). Put plainly: In vivo choroidal neovascularization (CNV) model. On the set-up: species or system rat. The conditions noted are these: Brown-Norway rats, injection on Day 3, CNV area on Day 10. From the text:
In Vivo Choroidal Neovascularization (CNV) Model This test measures the capacity of compounds to inhibit CNV progression. CNV is the main cause of severe vision loss in patients suffering from age-related macular degeneration (AMD). Male Brown-Norway rats (Charles River Japan Co., Ltd.) were used in these studies. Rats were anesthetized by intraperitoneal injection of pentobarbital, and the right pupil was dilated with 0.5% tropicamide and 0.5% phenylephrine hydrochloride. The right eye received 6 laser burns between retinal vessels using a slit lamp delivery system of Green laser Photocoagulator (Nidex Inc., Japan), and microscope slide glass with 10 mg/mL hyaluronic acid (SIGMA) used as a contact lens. The laser power was 200 mW for 0.1 second and spot diameter was 100 μm. At the time of laser burn, bubble production was observed; which is an indication of rupture of Bruch's membrane which is important for CNV generation. After animals were anesthetized, and the right pupil dilated (as mentioned above), the right eye of the animal received the compound or vehicle by an injection (3 μL/eye) at doses of 3 or 10 nmol/eye on Day 3. The compounds were dissolved or suspended in CBS, PBS, or other adequate vehicles before injection. On Day 10, the animals were anesthetized with ether, and high molecular weight fluorescein isothiocyanate (FITC)-dextran (SIGMA, 2×10^6 MW) was injected via a tail vein (20 mg/rat). About 30 min after FITC-dextran injection, animals were euthanized by ether or carbon dioxide, and the eyes were removed and fixed with 10% formaline neutral buffer solution. After over 1 hour of fixation, RPE-choroid-sclera flat mounts were obtained by removing cornea, lens and retina from the eyeballs. The flat mounts were mounted in 50% glycerol on a microscope slide, and the portion burned by laser was photographed using a fluorescence microscope (Nikon Corporation, excitation filter: 465-495 nm, absorption filter: 515-555 nm). The CNV area was obtained by measurement of hyper-fluorescence area observed on the photograph using Scion image. The average CNV area of 6 burns was used as an individual value of CNV area, and the average CNV area of compound treated group was compared with that of the vehicle-treated group.

Test [3] has as its system phospho ERK1/2 (T202/Y204) in HUVEC cells. The experiment in a line: VEGF-dependent Erk phosphorylation. Type of test: cell-based. The conditions noted are these: VEGF165 150 ng/ml, Western blot, read-out: P_ERK IC50UM. From the text:
VEGF-Dependent Erk Phosphorylation
HUVEC cells are purchased from Cambrex Bio Science Walkersville, Inc and cultured according to the vendor's instructions. The full-length coding sequence of VEGF165 is cloned using the Gateway Cloning Technology (Invitrogen) for baculovirus expression Sf9 cells. VEGF165 is purified from conditioned media using a NaCl gradient elution from a HiTrap heparin column (GE Healthcare Life Sciences) followed by an imidazole gradient elution from a HiTrap chelating column (GE Healthcare Life Sciences), then buffer stored in PBS supplemented with 0.1% BSA and filter sterilized
Cells are seeded at 8000 cells/well of a 96 wells plate and grown for 48 hours. Cells are then grown overnight in serum and growth factor-free medium and exposed for 1.5 h to compounds dilutions. Following a 15 min incubation in medium, VEGF165 (150 ng/ml) cells are lysed in ice-cold lysis buffer (50 mM HEPES, pH 7.4, 150 mM NaCl, 1.5 mM MgCl2, 1% Triton X-100, 10% glycerol) containing 1 mM 4-(2 aminoethyl)benzenesulfonyl fluoride hydrochloride, 200 μM sodium orthovanadate, 1 mM sodium fluoride, 10 μg/mL leupeptin, 10 μg/mL aprotinin, 1 μg/mL pepstatin and 50 μg/mL Na-p-tosyl-L-lysine chloromethyl ketone hydrochloride and processed as Western blots to detect anti-phospho ERK1/2 (T202/Y204) (Cell Signaling Technologies).
lysates samples from single treatment wells are separated on 5-20% SDS-PAGE gels and immunobloting is performed using Immobilon polyvinylidene difluoride membranes (Amersham) according to the manufacturer's instructions. The blots are washed in Tris-buffered saline with 0.1% Tween 20 detergent (TBST) and probed for antibodies against phospho-Thr202/Tyr204-ERK (Cell signaling technologies. Chemiluminescence detection (Amersham, ECL plus) is performed according to the manufacturer's instructions using a Storm densitometer (GE Healthcare; 800 PMT, […]) for imaging and densitometry analysis. Values of over the range of dilution are used to prepare IC50 curves using a 4-parameter fit model. These curves are calculated using GraFit
(In general: In western blotting, separated proteins are transferred to a membrane and probed.)

[4] abbreviates: Rattus norvegicus, 240 h, dose 3 nmol/eye, read-out: Inhibition of CNV Progression (%).

Read-outs that look alike come from different tables or passages of the source.

T1 sequence (P35968 806-1356): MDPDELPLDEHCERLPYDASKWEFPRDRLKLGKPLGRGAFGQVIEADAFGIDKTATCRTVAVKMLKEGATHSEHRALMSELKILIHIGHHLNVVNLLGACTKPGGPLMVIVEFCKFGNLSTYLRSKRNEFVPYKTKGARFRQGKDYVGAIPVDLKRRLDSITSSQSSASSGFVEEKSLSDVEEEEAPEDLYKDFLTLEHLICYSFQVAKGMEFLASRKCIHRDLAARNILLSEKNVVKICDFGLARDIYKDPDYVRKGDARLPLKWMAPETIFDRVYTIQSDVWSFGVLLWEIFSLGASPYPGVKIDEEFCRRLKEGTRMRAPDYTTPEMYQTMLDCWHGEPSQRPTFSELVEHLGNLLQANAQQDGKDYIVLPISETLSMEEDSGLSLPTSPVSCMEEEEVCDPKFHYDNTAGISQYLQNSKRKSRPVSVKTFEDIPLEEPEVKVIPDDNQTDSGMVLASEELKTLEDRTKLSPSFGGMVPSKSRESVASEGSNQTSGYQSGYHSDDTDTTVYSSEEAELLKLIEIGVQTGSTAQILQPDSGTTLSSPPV

On to `O=C(Nc1ccc(Oc2ccnc3cc(-c4ccc(CN5CCN(C(=O)COP(=O)(O)O)CC5)cn4)sc23)c(F)c1)NC1CC1` [Compound 6, 2-(4-((6-(7-(4-(3-Cyclopropylureido)-2-fluorophenoxy)thieno[3,2-b]pyridin-2-yl)pyridin-3-yl)methyl)piperazin-1-yl)-2-oxoethyl dihydrogen phosphate], for which the IC50 in test [1] is 9 nM; in test [3] (Homo sapiens), 0.4 nM. Also, in test [2] (setting [4]), the inhibition in vivo at 3 nmol/eye was determined as 20.9%.

For `COCCOCCOCCOCCN1CCN(Cc2ccc(-c3cc4nccc(Oc5ccc(NC(=O)NC6CC6)cc5F)c4s3)nc2)CC1` [Compound 7, 1-(4-(2-(5-((4-(2,5,8,11-Tetraoxamidecan-13-yl)piperazin-1-yl)methyl)pyridin-2-yl)thieno[3,2-b]pyridin-7-yloxy)-3-fluorophenyl)-3-cyclopropylurea], the figures for the IC50 in test [1] and in test [3] (Homo sapiens) were 6 nM and 0.2 nM, respectively. In addition, in test [2] (setting [4]), the inhibition in vivo at 3 nmol/eye stood at 18.1%.

On to `COCCOCCOCCOCCn1cc(-c2cc3nccc(Oc4ccc(NC(=O)NC5CC5)cc4F)c3s2)nn1` [Compound 30, 1-(4-(2-(1-(2,5,8,11-Tetraoxamidecan-13-yl)-1H-1,2,3-triazol-4-yl)thieno[3,2-b]pyridin-7-yloxy)-3-fluorophenyl)-3-cyclopropylurea], for which the IC50 in test [1] came to 18 nM; in test [3] (Homo sapiens) it was 70 nM. Also, in test [2] (setting [4]), the inhibition in vivo at 3 nmol/eye was 26.4%.

On to `COCCOCCOCCOCCOc1ccc(NCc2ccc(-c3cc4nccc(Oc5ccc(NC(=O)NC6CC6)cc5F)c4s3)nc2)cc1` [Compound 39], for which the figures for the IC50 in test [1] and in test [3] (Homo sapiens) were 33 nM and 6 nM, respectively. Moreover, the inhibition in vivo at 3 nmol/eye in test [2] (setting [4]) was 24.7%.

In the case of `COCCOCCOCCOCCC(=O)N1CCN(Cc2ccc(-c3cc4nccc(Oc5ccc(NC(=O)NC6CC6)cc5F)c4s3)nc2)CC1` [Compound 46, 1-(4-(2-(5-((4-2,5,8,11-Tetraoxatetradecanepiperazin-1-yl)methyl)pyridin-2-yl)thieno[3,2-b]pyridin-7-yloxy)-3-fluorophenyl)-3-cyclopropylurea], the IC50 in test [1] was determined as 11 nM. Besides, the inhibition in vivo at 3 nmol/eye in test [2] (setting [4]) was found to be 24.8%.

As for `COCCOCCOCCOCCOCCC(=O)N1CCN(Cc2ccc(-c3cc4nccc(Oc5ccc(NC(=O)NC6CC6)cc5F)c4s3)nc2)CC1` [Compound 49], the IC50 in test [1] worked out at 8 nM. In test [2] (setting [4]), the inhibition in vivo at 3 nmol/eye is 20.9%.

For the molecule `COCCOCCOCCOC(=O)N1CCN(Cc2ccc(-c3cc4nccc(Oc5ccc(NC(=O)NC6CC6)cc5F)c4s3)nc2)CC1` [Compound 50, 2-(2-(2-Methoxyethoxy)ethoxy)ethyl 4-((6-(7-(4-(3-cyclopropylureido)-2-fluorophenoxy)thieno[3,2-b]pyridin-2-yl)pyridin-3-yl)methyl)piperazine-1-carboxylate], the IC50 amounted to 8 nM in test [1] and 0.8 nM in test [3] (Homo sapiens). The inhibition in vivo at 10 nmol/eye in test [2] (Rattus norvegicus, 240 h, dose 10 nmol/eye, read-out: Inhibition of CNV Progression (%)) is 80.6%.

Regarding `COCCOCCOCCOCCOC1CN(Cc2ccc(-c3cc4nccc(Oc5ccc(NC(=O)NC6CC6)cc5F)c4s3)nc2)C1` [Compound 60, 1-(4-(2-(5-((3-(2,5,8,11-tetraoxamidecan-13-yloxy)azetidin-1-yl)methyl)pyridin-2-yl)thieno[3,2-b]pyridin-7-yloxy)-3-fluorophenyl)-3-cyclopropylurea], the figures for the IC50 in test [1] and in test [3] were 10 nM and 1.5 nM, respectively.

Turning to `COCCOCCOCCOCCN(C(C)=O)C1CCN(Cc2ccc(-c3cc4nccc(Oc5ccc(NC(=O)NC6CC6)cc5F)c4s3)nc2)CC1` [Compound 65, N-(1-((6-(7-(4-(3-Cyclopropylureido)-2-fluorophenoxy)thieno[3,2-b]pyridin-2-yl)pyridin-3-yl)methyl)piperidin-4-yl)-N-(2,5,8,11-tetraoxamidecan-13-yl)acetamide], the results for the IC50 in test [1] and in test [3] were 7 nM and 2 nM, respectively. Moreover, the “Inhibition of CNV Progression (%)” value in test [2] (dose 3 nmol/eye) came to 32.1%.

For the molecule `COCCOCCOCCOCCN1CCC(N(Cc2ccc(-c3cc4nccc(Oc5ccc(NC(=O)NC6CC6)cc5F)c4s3)nc2)C(C)=O)CC1` [Compound 69, N-(1-(2,5,8,11-Tetraoxamidecan-13-yl)piperidin-4-yl)-N-((6-(7-(4-(3-cyclopropylureido)-2-fluorophenoxy)thieno[3,2-b]pyridin-2-yl)pyridin-3-yl)methyl)acetamide], the IC50 in test [1] turned out to be 12 nM; in test [3], 25 nM.

The values above are taken from patent publication US20130096088A1, “Inhibitors of Protein Tyrosine Kinase Activity” (METHYLGENE INC., priority 2011, published 2013).
